# Measured values taken from patent US6284910A, “Farnesyl pyrophosphate analogs” (University of Kentucky Research Foundation, priority 1999, dated 2001).
# “Also recorded” adds a separate entry of the source.
# Legend:
# [1] = biological target: T1, recombinant rat brain FTase (Rattus norvegicus, UniProt Q02293+Q04631); assay: Inhibition of FTase-catalyzed transfer of [^3 H]farnesyl from [^3 H]FPP to H-Ras; type: biochemical; details: concentrations as high as 250 μM
# T1 construct: 6xHis (N); made in house; host or cells: Sf9 insect cells (baculovirus)
# Protocol: FIG. 2. Differential Inhibition of Farnesyltransferase and CAAX Geranylgeranyltransferase by AGPP. The assay mixtures contained (in a final volume of 25 μl) various components as described in "Experimental Procedures". After incubation for 15 min at 37° C., the amount of [^3 H]prenyl group transferred to the appropriate protein substrate [H-Ras (CVLS) for FTase and H-Ras (CVLL) for CAAX GGTase] was measured by precipitation with ethanol-HCl. The assays contained 10 ng recombinant rat FTase, 5 μM H-Ras, and 0.6 μM [^3 H]FPP (33,000 dpm/pmol) or 100 ng recombinant rat CAAX GGTase, 5 μM H-Ras CVLL, and 1 μM [^3 H]GGPP (33,000 dpm/pmol) and the indicated concentration of unlabeled AGPP. The 100% of control values were 1.1 and 5.5 pmol of [^3 H]farnesyl or [^3 H]geranylgeranyl transferred per tube. Each value is the average of duplicate incubations and is representative of two separate experiments.
# FIG. 3. Inhibition of Farnesyltransferase by AGPP and I-AGPP. The enzymatic activity was measured in the presence of the various concentrations of either AGPP or I-AGPP as described in […]. The 100% control values were 1.9 and 2 pmol. Each value is the average of duplicate incubations and is representative of three separate experiments.
# (§1) Assay for Farnesyltransferase Activity--Farnesyltransferase activity was assayed by measuring the amount of [^3 H]farnesyl or [^3 H]anilinogeranyl transferred from [^3 H]FPP or [^3 H]AGPP to recombinant p21^H-ras, as described previously (31). Unless otherwise stated, each reaction mixture contained the following components in a final volume of 25 μl: 50 mM Tris (pH 7.4), 20 mM KCl, 0.2% octyl β-glucopyranoside, 1 mM dithiothreitol, 10-20 ng recombinant FTase, 5 μM p21^Ha-ras, 3 mM MgCl2, 50 μM ZnCl2, and 0.6 μM [^3 H]FPP (33,000 dpm/pmol; American Radiochemical Co.) or 0.1-5 μM [^3 H]AGPP (37,400 dpm/pmol). Following incubation for the indicated times at 37° C., the amount of [^3 H]prenyl transferred was measured by ethanol-HCl precipitation and filtration on glass fiber filters with modification as previously described (19). A blank value was determined in parallel incubation mixtures containing no enzyme. This blank value was subtracted from each reaction before calculating pmol [^3 H]prenyl transferred.
# Inhibition of Farnesyltransferase by AGPP--AGPP was tested for its ability to inhibit recombinant rat brain FTase activity in vitro. AGPP inhibited FTase in a concentration dependent manner with an IC50 value of 0.6 μM (FIG. 2).
# Kinetic analyses were carried out to investigate the mechanism of FTase inhibition by AGPP. […] The same Km value was observed when the Lineweaver-Burke plot was analyzed under different Ras and AGPP concentrations in the presence of a constant concentration of FPP. […] AGPP inhibition is reversible, since transfer of [^3 H]-FPP by FTase to Ras was restored by isolating the farnesyltransferase by gel filtration chromatography after preincubation in the presence of 50 μM AGPP (data not shown).
# The assays contained 10 ng recombinant rat FTase, 5 μM H-Ras, and 0.6 μM [^3 H]FPP (33,000 dpm/pmol) or 100 ng recombinant rat CAAX GGTase, 5 μM H-Ras CVLL, and 1 μM [^3 H]GGPP (33,000 dpm/pmol) and the indicated concentration of unlabeled AGPP. The 100% of control values were 1.1 and 5.5 pmol of [^3 H]farnesyl or [^3 H]geranylgeranyl transferred per tube.
# FTase [2] = biological target: T2, FTase (Rattus norvegicus, UniProt Q02293+Q04631); assay: Inhibition of FTase-catalyzed transfer of [^3 H]AGPP to p21^H-ras; type: biochemical; set-up: H-Ras is only the protein substrate; details: non-radiolabeled compound, time and concentration dependent transfer
# Protocol: as §1
# (§2) The observed inhibition kinetics could be a manifestation of the ability of AGPP to act as an alternative substrate for FTase. To evaluate the potential of AGPP to serve as a substrate of FTase, [^3 H]-AGPP was prepared by a similar route as described above, incorporating tritium with a specific activity of 17 Ci/mmol (synthesis to be reported elsewhere). […] The incorporated radioactivity was detected as a band of the expected molecular weight of farnesylated p21^H-ras on SDS-polyacrylamide gels (FIG. 4A, inset). […] The concentration of [^3 H]AGPP that gave half-maximal reaction velocity was approximately 0.5 μM (FIG. 4B).
# FTase [3] = biological target: T2, FTase; assay: FTase-catalyzed transfer of labeled FPP analogs to p21^H-ras (substrate assay); type: biochemical; set-up: H-Ras is only the protein substrate; details: in vitro, 37° C.
# Protocol: FIG. 4. Transfer of Anilinogeranyl from [^3 H]AGPP to p21^Ha-ras by Farnesyltransferase. (A) Each reaction contained 1 μM [^3 H]AGPP (37,400 dpm/pmol) and 10 ng of recombinant FTase in the absence (triangles) or presence (circles) of 5 μM p21^Ha-ras Duplicate samples were incubated for the indicated times at 37° C., and ethanol-HCl precipitated radioactivity was measures as described under "Experimental Procedures". […] The gel was treated with Amplify solution (Amersham), dried, and exposed to Kodak X-OMAT AR film for 2 days at -70° C. The migration of molecular weight markers placed in a adjacent lane is shown. (B) The AGPP substrate saturation curve for FTase was determined by varying the amount of [^3 H]AGPP in the standard reaction described above. Assays were carried out in duplicate for 30 min at 37° C., and the ethanol-HCl precipitable radioactivity measured. The data is representative of three independent experiments.
# FIG. 5. […] Farnesyltransferase (10 ng) was incubated in a final volume of 25 μl in the presence of 1.0 μM [^3 H]AGPP or [^3 H]FPP and 5 μM wild-type p21^Ha-ras. After incubation for 30 min at 37° C., the amount of [^3 H]prenyl transferred to p21^Ha-ras was determined as described under "Experimental Procedures". Each value is the average of duplicate incubations and is representative of five separate experiments.
# as §1, §2
# FIG. 5 depicts transfer of unnatural anilinogeranyl lipid from [^3 H]AGPP and transfer of farnesyl lipid from [^3 H]FPP to H-Ras by FTase. Farnesyltransferase (10 ng) was incubated in a final volume of 25 μl in the presence of 1.0 μM [^3 H]AGPP or [^3 H]FPP and 5 μM wild-type H-Ras. After incubation for 30 min. at 37° C., the amount of [^3 H]prenyl transferred to H-Ras was determined by ethanol-HCl precipitation and scintillation counting. Each value is the average of duplicate incubations and is representative of five separate experiments.
# FTase [4] = biological target: T2, FTase; assay: Continuous fluorescence assay: transfer of FPP and analogs to N-dansyl-GCVLS by FTase; type: biochemical; details: excitation 340 nm, 505 nm
# Text: FIG. 8. Progress Curves for Transfer of FPP and Analog Pyrophosphates to Dansyl-GCVLS by FTase. The reaction is monitored for fluorescence intensity at 505 nm with excitation at 340 nm. (a) FPP, (b) AGPP, (c) 8-(pentafluoroaniline)geranyl pyrophosphate, (d) blank.
# Continuous Fluorescence Assay for Analog Transfer: An important requirement for these studies is the development of a rapid technique for evaluating whether FPP analogs that are efficiently and appropriately transferred to target substrates by FTase. The analogs were evaluated for their ability to be transferred by FTase to the pentapeptide N-dansyl-GCVLS in a continuous fluorescence assay. (See references 78, 79, infra). There is a time dependent increase in the fluorescence of the dansyl group due to the local increase in hydrophobicity as the adjacent cysteine residue is isoprenylated. […] (FIG. 8).
# Xenopus laevis oocytes = assay: Xenopus laevis oocyte maturation assay (GVBD) with oncogenic H-Ras in mevinolin-treated oocytes; type: cell-based; details: 50 μM mevinolin, overnight
# Text: Recently, a novel methodology involving the microinjection of known amounts of Ras into Xenopus oocytes has been described (see references 24, 45, infra), thereby permitting a quantitative structure-function analysis of H-Ras farnesyl-group for signal transduction in vivo. The approach makes use of enzymatic methods to attach structurally related farnesyl analogs onto the prenylation site of H-Ras combined with microinjection procedures to study their in vivo function. Oocytes are naturally arrested at the G2-M boundary of the first meiotic cell division. (See reference 80, infra). When microinjected with oncogenic H-Ras, oocytes reenter the cell cycle, which is monitored by germinal vesicle breakdown (GVBD) by the appearance of a white spot in the animal hemisphere. GVBD is accompanied by activation of the mitogen-activated protein kinase (MAPK) cascade. (See 81, 82, infra). […] (See references 24, 45, infra). These biochemical effects are strictly dependent on in vivo farnesylation of the injected H-Ras protein since mutation of the CaaX prenylation motif, blocking isoprenoid biosynthesis, and inhibition of FTase in oocytes all suppress these activities. (See references 83-85, infra). Thus, the system provides a method to study the in vivo role of prenylation by analyzing the ability of FPP analogues to rescue H-Ras biological functions in isoprenoid-depleted oocytes. […] Oocytes were isolated from X. laevis females and allowed to recover overnight. (See 24, 45, infra).
smiles,measurement,setting,value
"C/C(=C\CO)CC/C=C(\C)CNc1ccccc1 [AG-OH, (E,E)-8-Aniline-3,7-dimethyl-2,6-octadien-1-ol]","inhibition of FTase by anilinogeranyl alcohol, in words",[1],did not significantly inhibit
same,"inhibition of transfer of [^3 H]AGPP to p21^H-ras, in words",FTase [2],not AG-OH or farnesol were found to inhibit
"C/C(=C\COP(=O)(O)OP(=O)(O)O)CC/C=C(\C)CNc1ccc(I)cc1 [I-AGPP, 8-(4-iodoaniline)-3,7-dimethyl-2,6-octadiene pyrophosphate]","transfer to p21^H-ras by FTase, in words",FTase [3],efficient transfer of I-AGPP by FTase to H-Ras
same,"transfer to p21^H-ras by FTase, in words",FTase [3]; listed as 125 I-AGPP,time and substrate dependent manner similar to [^3 H]AGPP
"C/C(=C\COP(=O)(O)OP(=O)(O)O)CC/C=C(\C)CNc1ccc([N+](=O)[O-])cc1 [analog 2, 8-(4-nitroaniline)-3,7-dimethyl-2,6-octadiene pyrophosphate]","time-dependent increase in dansyl fluorescence / transfer to dansyl peptide, in words",FTase [4],Time-dependent increases in the fluorescence of the dansyl group
"C/C(=C\COP(=O)(O)OP(=O)(O)O)CC/C=C(\C)CNc1c(F)c(F)c(F)c(F)c1F [analog 4, 8-pentafluoroaniline-3,7-dimethyl-2,6-octadiene pyrophosphate]","time-dependent increase in dansyl fluorescence / transfer to dansyl peptide, in words",FTase [4],Time-dependent increases in the fluorescence of the dansyl group; also recorded: does not change the apparent kinetics of transfer
"C/C(=C\COP(=O)(O)OP(=O)(O)O)CC/C=C(\C)CNc1c(F)c(F)c(N=[N+]=[N-])c(F)c1F [analog 5, 8-(4-azido-2,3,5,6-tetrafluoroaniline)-3,7-dimethyl-2,6-octadiene pyrophosphate]","time-dependent increase in dansyl fluorescence / transfer to dansyl peptide, in words",FTase [4],"no increase in fluorescence, and are not transferred"
"CCN(C/C(C)=C/CC/C(C)=C/COP(=O)(O)OP(=O)(O)O)c1c(F)c(F)c(N=[N+]=[N-])c(F)c1F [analog 6, 8-(N-ethyl-4-azido-2,3,5,6-tetrafluoroaniline)-3,7-dimethyl-2,6-octadiene pyrophosphate]","time-dependent increase in dansyl fluorescence / transfer to dansyl peptide, in words",FTase [4],"no increase in fluorescence, and are not transferred"
"C/C(=C\COP(=O)(O)OP(=O)(O)O)CCCOCc1ccccc1 [analog 12, 6-benzyloxy-3-methyl-2-hexene pyrophosphate]","time-dependent increase in dansyl fluorescence / transfer to dansyl peptide, in words",FTase [4],transferred to dansyl peptide by FTase with slow kinetics; also recorded: Time-dependent increases in the fluorescence of the dansyl group
"CC(C)=CCCC(C)=CCCC(C)=CCO [farnesol, reference compound]","inhibition of transfer of [^3 H]AGPP to p21^H-ras, in words",FTase [2],not AG-OH or farnesol were found to inhibit
"CC[C@H](C)C(=O)O[C@H]1C[C@@H](C)C=C2C=C[C@H](C)[C@H](CC[C@@H]3C[C@@H](O)CC(=O)O3)[C@H]21 [mevinolin, reference compound]",depletion of endogenous FPP pool,Xenopus laevis oocytes,effectively depletes the endogenous pool of FPP
